Experimental data from CN116444420A, “β-catenin/BCL9蛋白蛋白相互作用的小分子抑制剂及其应用” (Shanghai Pharmaceutical Industry Research Institute Co ltd, priority 2021, dated 2023).
Like-named read-outs stand apart in the source and are kept apart here.

Experiments:
[1] = target: T1, hERG potassium channel [hERG钾离子通道] (Homo sapiens, UniProt Q12809); test: hERG potassium channel, whole-cell patch clamp (Example 73); format: cell-based
T1 construct: expressed in transfected cells; host or cells: HEK293 (stably transfected)
T1 sequence (Q12809 whole entry): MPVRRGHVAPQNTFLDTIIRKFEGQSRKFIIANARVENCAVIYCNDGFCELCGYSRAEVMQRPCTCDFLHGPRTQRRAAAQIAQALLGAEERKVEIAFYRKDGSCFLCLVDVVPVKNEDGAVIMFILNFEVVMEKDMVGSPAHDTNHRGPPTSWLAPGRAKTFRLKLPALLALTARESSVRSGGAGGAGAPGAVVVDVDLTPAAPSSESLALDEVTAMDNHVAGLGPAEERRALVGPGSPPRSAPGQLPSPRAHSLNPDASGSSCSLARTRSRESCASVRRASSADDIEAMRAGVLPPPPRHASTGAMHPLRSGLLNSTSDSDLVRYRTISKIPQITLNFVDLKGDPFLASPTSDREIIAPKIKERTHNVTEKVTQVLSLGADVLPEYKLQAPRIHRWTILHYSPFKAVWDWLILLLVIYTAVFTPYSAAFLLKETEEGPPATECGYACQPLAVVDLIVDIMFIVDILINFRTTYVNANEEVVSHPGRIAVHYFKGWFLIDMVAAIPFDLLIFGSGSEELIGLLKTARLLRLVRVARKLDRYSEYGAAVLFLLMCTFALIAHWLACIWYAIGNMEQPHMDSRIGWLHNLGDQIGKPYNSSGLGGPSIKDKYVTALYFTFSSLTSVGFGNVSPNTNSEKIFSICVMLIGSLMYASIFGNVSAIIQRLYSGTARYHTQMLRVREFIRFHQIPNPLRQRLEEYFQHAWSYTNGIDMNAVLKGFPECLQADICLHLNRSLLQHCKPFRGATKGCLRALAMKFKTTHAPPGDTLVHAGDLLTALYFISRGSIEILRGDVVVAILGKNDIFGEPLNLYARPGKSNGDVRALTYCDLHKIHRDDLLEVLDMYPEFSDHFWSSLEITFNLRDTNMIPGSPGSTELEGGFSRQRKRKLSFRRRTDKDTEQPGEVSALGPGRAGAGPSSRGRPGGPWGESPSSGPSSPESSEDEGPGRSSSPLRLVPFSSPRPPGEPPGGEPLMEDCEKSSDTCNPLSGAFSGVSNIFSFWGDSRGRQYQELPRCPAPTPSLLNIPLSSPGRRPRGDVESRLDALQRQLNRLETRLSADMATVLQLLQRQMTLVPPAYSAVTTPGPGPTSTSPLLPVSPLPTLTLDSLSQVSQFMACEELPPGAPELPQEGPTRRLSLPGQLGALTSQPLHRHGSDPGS

[2] = Liver microsome metabolic stability (Example 75); format: in vitro ADME; settings: 0.5 mg/mL liver microsomal protein, 1μM, NADPH, 37℃
[3] = target: T2, β-catenin/BCL9 protein-protein [β-catenin/BCL9蛋白-蛋白] (Homo sapiens, UniProt P35222); test: β-catenin/BCL9 protein-protein affinity, fluorescence polarisation (Example 71); format: binding; settings: better than compound c
T2 construct: β-catenin(1-781)
T2 sequence (P35222 1-781): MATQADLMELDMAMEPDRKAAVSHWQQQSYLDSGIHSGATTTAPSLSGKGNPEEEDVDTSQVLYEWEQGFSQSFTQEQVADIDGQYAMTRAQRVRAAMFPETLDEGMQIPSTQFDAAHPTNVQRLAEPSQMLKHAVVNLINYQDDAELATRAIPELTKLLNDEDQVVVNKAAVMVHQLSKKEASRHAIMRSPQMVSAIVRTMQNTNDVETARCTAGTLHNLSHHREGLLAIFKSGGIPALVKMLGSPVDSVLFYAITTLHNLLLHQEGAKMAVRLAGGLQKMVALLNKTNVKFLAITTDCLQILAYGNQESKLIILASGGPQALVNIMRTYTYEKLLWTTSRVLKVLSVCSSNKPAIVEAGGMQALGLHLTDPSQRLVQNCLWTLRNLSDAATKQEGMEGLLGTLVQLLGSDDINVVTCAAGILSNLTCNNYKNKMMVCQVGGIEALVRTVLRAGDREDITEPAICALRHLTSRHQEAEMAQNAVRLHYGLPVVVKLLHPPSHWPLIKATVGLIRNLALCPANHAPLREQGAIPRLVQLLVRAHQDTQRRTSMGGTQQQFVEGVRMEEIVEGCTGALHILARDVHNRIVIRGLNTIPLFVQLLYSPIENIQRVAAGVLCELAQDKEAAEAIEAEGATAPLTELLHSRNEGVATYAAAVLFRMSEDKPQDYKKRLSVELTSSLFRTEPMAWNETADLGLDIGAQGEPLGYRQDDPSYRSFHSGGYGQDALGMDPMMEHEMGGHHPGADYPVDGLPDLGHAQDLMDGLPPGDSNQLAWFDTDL

[4] = tested on: CT26 colon cancer cells in BALB/c mice [CT26结肠癌细胞]; test: In vivo experiment 1: CT26 colon cancer mouse model, II-25 and II-27 (Example 76); settings: 30mg/kg once daily; for inhibition of tumour growth: after 5 days of dosing
[5] = tested on: HEK293 human normal cells [HEK293人正常细胞]; settings: 10μM
[6] = tested on: HCT-116, CT-26, SW480, A549, RKO cells [人结肠癌细胞HCT-116、人结肠癌细胞CT-26、人结肠癌细胞SW480、人肺癌细胞A549、人结肠腺癌细胞RKO]; test: CCK-8 antiproliferative activity of II-39, cancer cell panel (Example 72, part 2); format: cell-based, human; settings: 10μM
[7] = tested on: CT26 colon cancer cells in BALB/c mice [CT26结肠癌细胞]; test: In vivo experiment 2: CT26 colon cancer mouse model, II-39 (Example 76)
[8] = tested on: CT-26 cells; test: CCK-8 antiproliferative activity of II-39, CT-26; format: cell-based, human; settings: 10μM
[9] = whole-cell patch clamp, HEK293 cells stably transfected, room temperature, read-out: hERG IC50

Compound	IC50 [1, 9] [µM]	affinity activity compared with reference compound c [3]	further results
CC(C)(Oc1cccc(C2CCCN(C(=O)c3cccc(-c4ccc(F)c(F)c4)c3)C2)c1)C(=O)O (stereo not shown) [化合物II-2, 2-(3-(1-(3',4'-二氟-[1,1'-联苯基]-3-羰基)哌啶-3-基)苯氧基)-2-甲基丙酸]	> 10	–	–
CC(C)c1ccc(-c2cccc(S(=O)(=O)N3CCCC(c4cccc(OC(C)(C)C(=O)O)c4)C3)c2)cc1 (stereo not shown) [化合物II-13, 2-(3-(1-((4'-异丙基-[1,1'-联苯基]-3-基)磺酰基)哌啶-3-基)苯氧基)-2-甲基丙酸]	> 10	亲和活性更优	liver microsome metabolic stability ([2]; Table 4): 肝微粒体代谢稳定
CC(C)(Oc1cccc(C2CCCN(S(=O)(=O)c3cccc(-c4ccsc4)c3)C2)c1)C(=O)O (stereo not shown) [化合物II-14, 2-甲基-2-(3-(1-((3-(噻吩-3-基)苯基)磺酰基)哌啶-3-基)苯氧基)丙酸]	> 10	–	–
Cc1ccc(-c2cccc(S(=O)(=O)N3CCCC(c4cccc(OC(C)(C)C(=O)N5CCNCC5)c4)C3)c2)cc1C.Cl (stereo not shown) [化合物II-25, 4-(2-(3-(1-((3',4'-二甲基-[1,1'-联苯]-3-基)磺酰基)哌啶-3-基)苯氧基)-2-甲基丙酰基)哌嗪-1-氯化铵]	–	亲和活性更优	tolerability / safety [4]: 动物耐受,安全性良好; inhibition of tumour growth [4]: 可显著抑制小鼠体内肿瘤的生长; IC50 [1]: > 10 µM
Cc1ccc(-c2cccc(S(=O)(=O)N3CCCC(c4cccc(OC(C)(C)C(=O)NS(=O)(=O)c5ccccc5)c4)C3)c2)cc1C (stereo not shown) [化合物II-27, 2-(3-(1-((3',4'-二甲基-[1,1'-联苯基]-3-基)磺酰基)哌啶-3-基)苯氧基)-2-甲基-N-(苯磺酰基))丙酰胺]	> 10	亲和活性更优	liver microsome metabolic stability ([2]; Table 4): 肝微粒体代谢稳定; tolerability / safety [4]: 动物耐受,安全性良好; inhibition of tumour growth [4]: 可显著抑制小鼠体内肿瘤的生长
CC(C)c1ccc(-c2cccc(S(=O)(=O)N3CCCC(c4cccc(OC(C)(C)C(=O)NS(=O)(=O)c5ccccc5)c4)C3)c2)cc1 (stereo not shown) [化合物II-28, 2-(3-(1-((4'-异丙基-[1,1'-联苯基]-3-基)磺酰基)哌啶-3-基)苯氧基)-2-甲基-N-(苯磺酰基)丙酰胺]	> 10	亲和活性更优	liver microsome metabolic stability ([2]; Table 4): 肝微粒体代谢稳定
CC(C)c1ccc(-c2cccc(S(=O)(=O)N3CCCC(c4cccc(OC(C)(C)C(=O)NS(=O)(=O)c5ccc(C(F)(F)F)cc5)c4)C3)c2)cc1 (stereo not shown) [化合物II-39, 2-(3-(1-((4'-异丙基-[1,1'-联苯]-3-基)磺酰基)哌啶-3-基(苯氧基)-2-甲基-N-((4-(三氟甲基)苯基)磺酰)丙酰胺]	> 10	–	liver microsome metabolic stability ([2]; Table 5): 肝微粒体代谢稳定; effect on normal cells [5]: 没有影响; anti-colon-cancer activity [6]: 表现出较好的抗结肠癌活性; body weight ([7]; II-39 30mg/kg i.p. once daily): 未观察到小鼠体重有明显减轻; tolerability / safety ([7]; II-39 30mg/kg i.p. once daily): 动物耐受,安全性良好; tumour inhibition in combination with PD-1 antibody ([7]; II-39 30mg/kg i.p. once daily + PD-1 antibody 10mg/kg i.p. twice a week): 肿瘤得到进一步的抑制; inhibition of colon cancer growth ([7]; II-39 30mg/kg intraperitoneal once daily): 可以很好的抑制结肠癌的生长; TGI ([7]; combination: II-39 30mg/kg i.p. once daily + PD-1 antibody 10mg/kg i.p. twice a week): 81.1%; antiproliferative activity compared with ICG-001 [8]: 显著的优于阳性对照药ICG-001
COc1cccc(S(=O)(=O)NC(=O)C(C)(C)Oc2cccc(C3CCCN(S(=O)(=O)c4cccc(-c5ccc(C(C)C)cc5)c4)C3)c2)c1 (stereo not shown) [化合物II-51, 2-(3-(1-((4'-异丙基-[1,1'-联苯]-3-基)磺酰基)哌啶-3-基(苯氧基)-N-((3-甲氧基苯基)磺酰)-2-甲基丙酰胺]	–	亲和活性更优	–
CC(C)c1ccc(-c2cccc(S(=O)(=O)N3CCCC(c4cccc(OC(C)(C)C(=O)NS(=O)(=O)c5ccc(C(F)(F)F)cc5Cl)c4)C3)c2)cc1 (stereo not shown) [化合物II-52, N-((2-氯-4-(三氟甲基)苯基)磺酰基)-2-(3-(1-((4'-异丙基-[1,1'-联苯]-3-基)磺酰)哌啶-3-基苯氧基)-2-甲基丙酰胺]	–	亲和活性更优	–
CC(C)(Oc1cccc(C2CCCN(C(=O)c3cccc(-c4ccc(F)c(F)c4)c3)C2)c1)C(=O)NS(=O)(=O)c1ccc(C(F)(F)F)cc1 (stereo not shown) [化合物II-55, 2-(3-(1-(3',4'-二氟-[1,1'-联苯]-3-羰基)哌啶-3-基)苯氧基)-2-甲基-N-((4-(三氟甲基)苯基)磺酰基)丙酰胺]	–	亲和活性更优	–
CC(C)(Oc1cccc(C2CCCN(C(=O)c3cccc(-c4ccc(F)c(F)c4)c3)C2)c1)C(=O)NS(=O)(=O)c1ccc2ccccc2c1 (stereo not shown) [化合物II-56, 2-(3-(1-(3',4'-二氟-[1,1'-联苯]-3-羰基)哌啶-3-基)苯氧基)-2-甲基-N-(萘-2-基磺酰基)丙酰胺]	–	亲和活性更优	–
CC(C)(Oc1cccc(C2CCCN(C(=O)c3cccc(-c4ccc(F)c(F)c4)c3)C2)c1)C(=O)N1CCC(=O)CC1 (stereo not shown) [化合物II-57, 1-(2-(3-(1-(3',4'-二氟-[1,1'-联苯]-3-羰基)哌啶-3-基)苯氧基)-2-甲基丙酰基)哌嗪-4-酮]	–	亲和活性更优	–
CC(C)(Oc1cccc(C2CCCN(C(=O)c3cccc(-c4ccc(F)c(F)c4)c3)C2)c1)C(=O)N1CCNCC1.Cl (stereo not shown) [化合物II-58, 4-(2-(3-(1-(3',4'-二氟-[1,1'-联苯]-3-羰基)哌啶-3-基)苯氧基)-2-甲基丙酰基)哌嗪-1-氯化铵]	–	亲和活性更优	–
CC(C)(Oc1cccc(C2CCCN(C(=O)c3cccc(-c4ccc(F)c(F)c4)c3)C2)c1)C(=O)N1CCC(N)CC1.Cl (stereo not shown) [化合物II-59, 1-(2-(3-(1-(3',4'-二氟-[1,1'-联苯]-3-羰基)哌啶-3-基)苯氧基)-2-甲基丙酰基)哌嗪-4-氯化铵]	–	亲和活性更优	–
CC(C)(Oc1cccc(C2CCCN(C(=O)c3cccc(-c4ccc(F)c(F)c4)c3)C2)c1)C(=O)N1CCOCC1 (stereo not shown) [化合物II-60, 2-(3-(1-(3',4'-二氟-[1,1'-联苯]-3-羰基)哌啶-3-基)苯氧基)-2-甲基-1-吗啉丙-1-酮]	–	亲和活性更优	–
CC(C)(Oc1cccc(C2CCCN(C(=O)c3cccc(-c4ccc(F)c(F)c4)c3)C2)c1)C(=O)NC1CCNCC1.Cl (stereo not shown) [化合物II-61, 4-(2-(3-(1-(3',4'-二氟-[1,1'-联苯]-3-羰基)哌啶-3-基)苯氧基)-2-甲基丙酰胺)哌啶-1-氯化铵]	–	亲和活性更优	–
CC(C)(Oc1cccc(C2CCCN(C(=O)c3cccc(-c4ccc(F)c(F)c4)c3)C2)c1)C(=O)N1CCC(O)CC1 (stereo not shown) [化合物II-63, 2-(3-(1-(3',4'-二氟-[1,1'-联苯]-3-羰基)哌啶-3-基)苯氧基)-1-(4-羟基哌啶-1-基)-2-甲基丙-1-酮]	–	亲和活性更优	–
CC(C)(Oc1cccc(C2CCCN(C(=O)c3cccc(-c4ccc(F)c(F)c4)c3)C2)c1)C(=O)N1C[C@H]2C[C@@H]1CN2.Cl (stereo partly drawn) [化合物II-65, (1R,4R)-5-(2-(3-(3-(3',4'-二氟-[1,1'-联苯]-3-羰基)哌啶-3-基)苯氧基)-2-甲基丙酰基)-2,5-二氮杂二环[2.2.1]庚-2-氯化铵]	–	亲和活性更优	–
CC(C)(Oc1cccc(C2CCCN(C(=O)c3cccc(-c4ccc(F)c(F)c4)c3)C2)c1)C(=O)N1C[C@@H]2C[C@H]1CN2.Cl (stereo partly drawn) [化合物II-66, (1S,4S)-5-(2-(3-(1-(3',4'-二氟-[1,1'-联苯]-3-羰基)哌啶-3-基)苯氧基)-2-甲基丙酰基)-2,5-二氮杂二环[2.2.1]庚烷-2-氯化铵]	–	亲和活性更优	–
COc1ccc(S(=O)(=O)NC(=O)C(C)(C)Oc2cccc(C3CCCN(C(=O)c4cccc(-c5ccc(F)c(F)c5)c4)C3)c2)cc1 (stereo not shown) [化合物II-68, 2-(3-(1-(3',4'-二氟-[1,1'-联苯]-3-羰基)哌啶-3-基)苯氧基)-N-((4-甲氧基苯基)磺酰基)-2-甲基丙酰胺]	–	亲和活性更优	–
